Data set [1] has as its system spinal cord white matter of EAE mice. As to the kind of experiment: Zinc staining (TSQ) of spinal cord of EAE mice. The class given is in vivo, C57BL/6 female mice. To be noted: day 21 after EAE induction.
In data set [2] the test system is spinal cord of EAE mice. The data set can be described thus: Immunohistochemistry of spinal cord of EAE mice (CD4, CD8, CD20, IgG leakage). It counts as in vivo, C57BL/6 female mice. As to the method: (§1) The present inventors induced experimental autoimmune encephalomyelitis (EAE), an animal model of multiple sclerosis, by subcutaneously injecting Myelin oligodendrocyte glycoprotein 35-55 (MOG35-55) peptide antigen into C57BL/6 female mice (FIG. 1A). For this, MOG35-55 (Ana spec, USA) and Complete freund's adjuvant (CFA) were first prepared, and MOG35-55 (2 mg/ml) was dissolved in Phosphate buffered saline (lx PBS, Sigma), and then the 25 ml of CFA was prepared by dispending 25 ml of incomplete freund's adjuvant (IFA. Sigma) in a 50 ml conical tube. Then, in a fume hood, Mycobacterium tuberculosis H37Ra (100 mg; Difco, USA) was added to the IFA in order to prepare CFA and store it in the refrigerator after vortexing before use. Thereafter, MOG35-55 and CFA containing Mycobacterium tuberculosis H37Ra was mixed in the same amount and injected into both flanks of the mice. And then Pertussis toxin (4 μg/ml, List Biological Laboratories, USA) was injected intraperitoneally on the day of immunization and on the second day after immunization. After the immunization, the mice's body weight and clinical symptoms were measured every day, and the degree of EAE progression was evaluated based on specific clinical symptoms. More details on this are provided below.
On the 21st day after EAE induction, the present inventors anesthetized mice with urethane and then perfused 4% paraformaldehyde into the heart to fix the spinal cord. And then, an immunohistochemistry was performed using anti-CD4, anti-CD8, and anti-CD20 antibodies […]. Cryosections were reacted with 3% hydrogen peroxide at room temperature for 15 minutes to remove endogenous peroxidase, and then primary antibodies, rat anti-CD4 (1:50, BD Bioscience, CA, USA), anti-CD8 (1:50, BD Bioscience) and goat anti-CD20 (1:50, SantaCruz Biotechnology, USA) antibodies were reacted for 15 hours at 4° C. Thereafter, biotinylated anti-rat IgG or anti-goat IgG (1:250, Vector Laboratories, USA) was reacted at room temperature for 2 hours. […]

Data set [3] relates to MOG35-55-induced experimental autoimmune encephalomyelitis (EAE). As to the kind of experiment: EAE clinical symptom assessment and incidence rate, 21 days after immunization. The class given is in vivo, C57BL/6 female mice. Conditions: EAE mice, 1H10 intraperitoneally once a day, vs vehicle.
Source text: The experimental animals used in the present invention are an 8-week-old, C57BL/6 female mice supplied from Dae Han BioLink, Co., Ltd. (Korea). These mice were bred in an environment controlled by temperature and humidity, and feed and water were fed freely.
as §1, with “Thereafter, MOG35-55 and CFA containing Mycobacterium tuberculosis H37Ra was mixed in the same amount and injected into both flanks of the mice. And then Pertussis toxin (4 μg/ml, List Biological Laboratories, USA) was injected intraperitoneally on the day of immunization and on the second day after immunization.” left out, “More details on this are provided below.” left out
(§2) EAE clinical symptom was evaluated based on previous studies (Jones et al., J. Neuroimmunol. 199(1-2): 83-93. 2008). […]

For data set [4], the system named is spinal cord of EAE mice. As to the kind of experiment: Cresyl violet staining of spinal cord of EAE mice (mononuclear cell infiltration). The class given is in vivo, C57BL/6 female mice. Conditions: spinal cord white matter, day 21 after EAE induction, vs vehicle. The protocol:
as §1, with “below. […]” for “below.”

The test system of data set [5] is MOG35-55-induced experimental autoimmune encephalomyelitis (EAE). The data set can be described thus: Long-term EAE model, 45 days after initial immunization. The class given is in vivo, C57BL/6 female mice. To be noted: intraperitoneally once a day. The protocol: as §1, §2
The subject of data set [6] is mouse cortical neuron culture. As to the kind of experiment: Intrinsic toxicity in cortical neuron culture, LDH cytotoxicity. The class given is cell-based. To be noted: 40 μM. The protocol:
The mouse cortical neurons used in the present invention were extracted from the brain of a mouse embryo, and cultured in Dulbecco's modified Eagle's medium (DMEM, Gibco, Grand Island, NY, US) supplemented with 5% fetal bovine serum (FBS) and 5% horse serum (HS) under the condition of 95% humidity, 5% CO2 and 37° C. For activation and differentiation of the cells, the cells were grown to a density of 2×10^4 cells in a 24-well tissue culture plate and cultured in MEM medium without FBS and HS before treatment with zinc and compounds.
Specifically, 40 μM of each of the drugs was treated in a mouse cortical neuron culture, and LDH cytotoxicity was observed after 24 or 48 hours.

The next data set has as its system neuronal cell death. To be noted: after stroke; Eom J. W. et al., ACS Chem Neurosci. 2019; cited from earlier work.

On to `O=C1N=C(Nc2cccc(O)c2)S/C1=C\c1c[nH]c2ccccc12` [1H10, (Z)-5-((1H-indol-3-yl)methylene)-2-((3-hydroxyphenyl)amino)thiazol-4(5H)-one], for which the “patch-like TSQ abnormal staining (zinc accumulation)” value in data set [1] is recorded as “significantly reduced”. Moreover, the “IgG staining due to damage of BBB” value in the data set on spinal cord of EAE mice [2] (Sham group (no EAE induction), white or gray matter) was “not detected”. Also, the “infiltration of the T and B cells (CD4, CD8, CD20)” value with spinal cord of EAE mice [2] (spinal cord white matter, after EAE induction, vs vehicle) is listed as “significantly inhibited”. For the same molecule, the “IgG infiltration (BBB damage)” value in the data set on spinal cord of EAE mice [2] (white and gray matter, 3 weeks after MOG injection) was “significantly reduced”. Besides, the “behavioral disorders (EAE clinical score)” value in data set [3] is reported as “significantly inhibited”. Also, the incidence rate entry in data set [3] was “suppressed”; in data set [5], “significantly reduced”. Besides, in the data set with spinal cord of EAE mice [4], the mononuclear cell infiltration entry was “significantly inhibited”. Also, the clinical symptoms result in data set [5] is given as “significantly reduced”. Further, the “intrinsic toxicity (LDH cytotoxicity)” value in data set [6] (after 24 hours of drug treatment) was 7.81±2.77%; in data set [6] (after 48 hours of drug treatment) it was 60.72±8.28%. Also, in the data set with neuronal cell death, the “neuronal cell death caused by zinc toxicity, excitory toxicity and oxidative damage” value is reported as “reduced”.

These data come from US12343335B2, “Pharmaceutical composition for treating multiple sclerosis on basis of AMPK inhibitory function and zinc homeostasis control function” (ZINCURE CORP., priority 2019, dated 2025).
